The values below come from publication PMC7269367 (Chemical research in toxicology, 2019).

One series has as its target T1, recombinant CYP4F12 (Homo sapiens, UniProt Q9HCS2).
T1 sequence (Q9HCS2 1-524): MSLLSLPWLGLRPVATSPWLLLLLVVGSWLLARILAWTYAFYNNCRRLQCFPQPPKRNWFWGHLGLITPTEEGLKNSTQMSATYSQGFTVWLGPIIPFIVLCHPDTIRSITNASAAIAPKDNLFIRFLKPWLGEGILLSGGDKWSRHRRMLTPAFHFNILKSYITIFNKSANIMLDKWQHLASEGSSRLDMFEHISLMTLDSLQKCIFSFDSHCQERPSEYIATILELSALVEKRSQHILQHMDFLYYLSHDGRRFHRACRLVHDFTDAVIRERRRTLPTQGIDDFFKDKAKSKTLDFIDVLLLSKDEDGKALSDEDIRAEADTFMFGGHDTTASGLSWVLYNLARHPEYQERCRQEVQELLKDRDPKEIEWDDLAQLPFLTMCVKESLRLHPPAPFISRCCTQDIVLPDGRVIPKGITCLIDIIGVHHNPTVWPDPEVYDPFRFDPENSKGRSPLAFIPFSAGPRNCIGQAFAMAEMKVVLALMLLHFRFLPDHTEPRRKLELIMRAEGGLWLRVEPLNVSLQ
Briefly: BAC consumption by human recombinant CYP4F12. In kind it is in vitro ADME. Conditions: for substrate consumed by recombinant CYP4F12: 50 nM P450, 30-minute incubation, NADPH.

The nature of series [1]: Time-courses of C10-BAC depletion and metabolite formation in HLM. To be noted: HLM 0.2 mg/mL.
The target in another series is T2, recombinant CYP4F2 (Homo sapiens, UniProt P78329).
T2 sequence (P78329 5-520): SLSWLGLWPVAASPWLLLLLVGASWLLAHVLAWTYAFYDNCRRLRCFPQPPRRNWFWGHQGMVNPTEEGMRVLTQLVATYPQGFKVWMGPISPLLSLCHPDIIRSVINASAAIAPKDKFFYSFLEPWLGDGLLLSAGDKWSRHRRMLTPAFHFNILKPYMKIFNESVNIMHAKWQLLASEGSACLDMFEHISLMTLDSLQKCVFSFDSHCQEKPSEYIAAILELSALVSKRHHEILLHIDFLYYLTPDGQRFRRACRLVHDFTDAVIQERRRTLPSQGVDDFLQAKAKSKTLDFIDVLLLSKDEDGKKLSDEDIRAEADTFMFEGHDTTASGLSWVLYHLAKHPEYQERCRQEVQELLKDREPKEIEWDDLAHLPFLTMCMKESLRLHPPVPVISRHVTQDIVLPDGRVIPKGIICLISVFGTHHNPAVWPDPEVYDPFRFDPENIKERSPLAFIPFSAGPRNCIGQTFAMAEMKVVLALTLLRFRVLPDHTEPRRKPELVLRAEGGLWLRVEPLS
Description: BAC consumption by human recombinant CYP4F2. To be noted: for effective inhibitor of recombinant CYP4F2 (C16-BAC consumption): inhibitor 1 μM, C16-BAC 2 μM, 50 nM P450, 20 minutes. The format is in vitro ADME.

The subject of series [2] is Dhcr7 / cholesterol biosynthesis in Neuro2a cells. Description: Cellular sterol levels in Neuro2a cells after exposure. To be noted: 100 nM; for cellular accumulation of 7-DHC, less than the accumulation caused by C10-BAC: 72 hours; for cellular desmosterol and cholesterol: 72 hour exposure, serum-free media, relative to Control. The format is cell-based, Mouse.
In series [3] the test system is 3β-hydroxysterol-Δ^7-reductase (DHCR7). Conditions: at nM concentrations; cited from earlier work.
The nature of series [4]: Metabolic stability of BACs in HLM. In kind it is in vitro ADME, human. To be noted: BAC 2 μM incubated separately, HLM 1 mg/mL, NADPH-dependent consumption.
The next series addresses recombinant CYP3A4 (Homo sapiens, UniProt P08684). Description: BAC consumption by human recombinant CYP3A4. The format is in vitro ADME. To be noted: 2 μM substrate, 50 nM P450, 30-minute incubation, NADPH.
The next series deals with recombinant CYP2D6 (Homo sapiens, UniProt P10635). Description: BAC consumption by human recombinant CYP2D6. In kind it is in vitro ADME. Conditions: 2 μM substrate, 50 nM P450, 30-minute incubation, NADPH.
The nature of series [5]: Kinetic characterization of C10-BAC hydroxylation in HLM. To be noted: HLM 0.04 mg/mL, NADPH, 0.1 to 128 μM C10-BAC, initial rates. In kind it is in vitro ADME, human.
The next series deals with T3, recombinant CYP2A6 (Homo sapiens, UniProt P11509).
T3 sequence (P11509 1-494): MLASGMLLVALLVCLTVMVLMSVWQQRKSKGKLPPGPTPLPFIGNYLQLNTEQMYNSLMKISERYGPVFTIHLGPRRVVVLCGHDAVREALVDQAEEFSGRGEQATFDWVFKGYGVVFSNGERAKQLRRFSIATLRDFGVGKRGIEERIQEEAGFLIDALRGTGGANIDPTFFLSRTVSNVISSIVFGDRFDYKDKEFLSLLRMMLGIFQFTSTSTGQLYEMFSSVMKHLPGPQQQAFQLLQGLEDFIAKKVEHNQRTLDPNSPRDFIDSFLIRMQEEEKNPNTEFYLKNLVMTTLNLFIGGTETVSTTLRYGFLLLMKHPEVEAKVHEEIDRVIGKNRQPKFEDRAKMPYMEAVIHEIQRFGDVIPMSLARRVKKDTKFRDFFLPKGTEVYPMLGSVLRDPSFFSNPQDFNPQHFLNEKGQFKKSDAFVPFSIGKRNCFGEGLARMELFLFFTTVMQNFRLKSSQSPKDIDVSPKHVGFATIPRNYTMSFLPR
Briefly: BAC consumption by human recombinant CYP2A6. The format is in vitro ADME. Conditions: 2 μM substrate, 50 nM P450, 30-minute incubation, NADPH.

Sequence of recombinant CYP2D6 (P10635 whole entry): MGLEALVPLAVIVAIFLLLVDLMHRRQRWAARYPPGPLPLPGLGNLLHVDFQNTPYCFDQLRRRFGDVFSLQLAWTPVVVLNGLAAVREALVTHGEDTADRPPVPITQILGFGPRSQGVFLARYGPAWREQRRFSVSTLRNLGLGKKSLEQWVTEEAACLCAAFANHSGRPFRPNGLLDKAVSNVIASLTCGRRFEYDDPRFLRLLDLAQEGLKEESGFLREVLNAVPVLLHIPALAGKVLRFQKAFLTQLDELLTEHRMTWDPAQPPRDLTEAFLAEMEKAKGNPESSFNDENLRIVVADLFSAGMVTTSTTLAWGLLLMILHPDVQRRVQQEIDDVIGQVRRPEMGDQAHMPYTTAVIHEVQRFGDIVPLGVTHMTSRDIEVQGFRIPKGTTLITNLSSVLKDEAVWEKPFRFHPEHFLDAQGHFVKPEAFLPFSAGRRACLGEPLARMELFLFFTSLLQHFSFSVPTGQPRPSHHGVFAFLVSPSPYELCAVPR
Sequence of recombinant CYP3A4 (P08684 whole entry): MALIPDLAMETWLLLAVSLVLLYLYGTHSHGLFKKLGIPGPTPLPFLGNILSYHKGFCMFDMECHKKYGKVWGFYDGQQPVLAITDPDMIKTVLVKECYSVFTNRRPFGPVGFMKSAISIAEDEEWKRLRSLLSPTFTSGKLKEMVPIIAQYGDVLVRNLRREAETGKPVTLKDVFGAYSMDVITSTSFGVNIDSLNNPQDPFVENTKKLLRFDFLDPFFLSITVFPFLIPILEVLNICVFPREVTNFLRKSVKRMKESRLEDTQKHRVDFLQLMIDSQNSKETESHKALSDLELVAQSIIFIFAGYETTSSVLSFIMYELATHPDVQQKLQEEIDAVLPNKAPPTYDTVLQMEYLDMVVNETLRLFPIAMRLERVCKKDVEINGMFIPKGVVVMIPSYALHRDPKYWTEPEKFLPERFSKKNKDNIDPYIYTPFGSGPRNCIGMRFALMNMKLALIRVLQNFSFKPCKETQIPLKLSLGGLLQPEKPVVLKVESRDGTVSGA

As to `C=C[C@H]1C[N@@]2CC[C@H]1C[C@@H]2[C@@H](O)c1ccnc2ccc(OC)cc12` [quinidine], the “inhibition of C16-BAC consumption by recombinant CYP4F12” value on recombinant CYP4F12 (inhibitor 1 μM alone, C16-BAC 2 μM, 50 nM P450, 20 minutes) is listed as “did not inhibit”. In series [1] (inhibitor 1 μM, C10-BAC 680 nM), the “effect on C10-BAC (ω−1)-hydroxylation / oxidation at the (ω−1)-position in HLM” value is “primarily inhibitory”, the “effect on C10-BAC ω-hydroxylation (ω-hydroxy metabolite formation) in HLM” value was “did not inhibit” and the “effect on ω-carboxylic acid formation from C10-BAC in HLM” value is given as “partial suppression”. For the same compound, the “effective inhibitor of recombinant CYP4F2 (C16-BAC consumption)” value on recombinant CYP4F2 is “not”.
For `CC(O)CCCCCCCC[N+](C)(C)Cc1ccccc1.[Cl-]` (stereo not shown) [(ω−1)-hydroxy-C10-BAC], the “cellular accumulation of 7-DHC, less than the accumulation caused by C10-BAC” value in series [2] is given as “over 2 orders of magnitude”.
As for `CCCCCCCCCC[N+](C)(C)Cc1ccccc1.[Cl-]` [C10-BAC], the “inhibition of DHCR7 in the cholesterol biosynthesis pathway” value in series [3] is “inhibit”. Also, at recombinant CYP4F12 (2 μM substrate), the “substrate consumed by recombinant CYP4F12” value is recorded as “essentially all”. For the same compound, the “apparent half-life in HLM” value in [4] is “approximately 1 minutes”. For the same compound, in [1] (680 nM initial substrate, NADPH, no inhibitor), the “C10-BAC concentration remaining at the 4-minute time point” value is recorded as 341 ± 7 nM. In addition, the “substrate consumed by recombinant CYP3A4” value at recombinant CYP3A4 was 15%. Besides, the “substrate consumed by recombinant CYP2D6” value on recombinant CYP2D6 is listed as “essentially all”. For the same compound, in series [2], the “cellular desmosterol and cholesterol” value was “significant decreased level”. Besides, in series [5], the “Vmax of (ω−1)-hydroxylation” value is 126 pmol/min/mg and the “Vmax of ω-hydroxylation” value is recorded as 380 pmol/min/mg. In addition, the Km (commonly the substrate concentration at which the rate is half of its maximum) in series [5] (read-out: Km of (ω−1)-hydroxylation) came out at 0.13 µM.
On to `CCCCc1ccc(N=CNO)c(C)c1` [HET0016], for which, in [1] (inhibitor 1 μM, C10-BAC 680 nM), the “effect on (ω−1)-ketone formation from C10-BAC in HLM” value is recorded as “suppressing”, the “effect on C10-BAC (ω−1)-hydroxylation / oxidation at the (ω−1)-position in HLM” value is recorded as “promoted”, the “effect on C10-BAC ω-hydroxylation (ω-hydroxy metabolite formation) in HLM” value is given as “nearly complete inhibition” and the “effect on ω-carboxylic acid formation from C10-BAC in HLM” value is on record as “nearly complete inhibition”. For the same compound, the “effective inhibitor of recombinant CYP4F2 (C16-BAC consumption)” value on recombinant CYP4F2 is “essentially complete inhibition”.
For `Cl.Cl.Clc1ccccc1CNCC1CCC(CNCc2ccccc2Cl)CC1` (stereo not shown) [AY9944, reference compound], the “cellular desmosterol and cholesterol” value in [2] was “significant decreased level”.
On to `C[N+](C)(CCCCCCCCCCO)Cc1ccccc1.[Cl-]` [ω-hydroxy-C10-BAC], for which the “cellular accumulation of 7-DHC, less than the accumulation caused by C10-BAC” value in [2] is on record as “over 2 orders of magnitude”.
As for `CCCCCCCCCCCCCC[N+](C)(C)Cc1ccccc1.[Cl-]` [C14-BAC], the “apparent half-life in HLM” value in series [4] was about 6 min.
As for `CCCCCCCCCCCCCCCC[N+](C)(C)Cc1ccccc1.[Cl-]` [C16-BAC], the “substrate consumed by recombinant CYP4F12” value at recombinant CYP4F12 (2 μM substrate) is listed as 88%. Besides, the “C16-BAC percent remaining with recombinant CYP4F12, HET0016 alone” value at recombinant CYP4F12 (2 μM substrate, 50 nM P450, 20 minute incubation, HET0016 1 μM, mean ± SD, n = 3) is on record as 49% ± 6%. In addition, the “C16-BAC percent remaining with recombinant CYP4F12, no inhibitor” value at recombinant CYP4F12 (2 μM substrate, 50 nM P450, 20 minute incubation, no inhibitor, mean ± SD, n = 3) was 26% ± 4%. Moreover, the “substrate consumed by recombinant CYP2A6” value on recombinant CYP2A6 came out at 5%. Besides, in [4], the “apparent half-life in HLM” value was about 15 min. Besides, the “substrate consumed by recombinant CYP2D6” value at recombinant CYP2D6 amounted to 77%. In addition, the “substrate consumed by recombinant CYP4F2” value on recombinant CYP4F2 (2 μM substrate, 50 nM P450, 30-minute incubation, NADPH) is 45%.
